Measured values as given in US6383479B1, “Neutrophil-activating factor” (Novartis AG, priority 1987, dated 2002).

Columns and labels:
human neutrophils [1] = test: superoxide formation (SOD-sensitive cytochrome c reduction) by human neutrophils; assay type: cell-based; conditions: per 10^6 cells
Method: a) Superoxide production: neutrophils (3×10^6 /ml) are preincubated at 37° with or without 1 μm PAF for 2 minutes and then stimulated with increasing amounts of NAF. Recordings of cytochrome c reduction following NAF addition are shown.
Superoxide formation is measured at 37° as the SOD sensitive reduction of ferricytochrome c (M. Markert et al., Methods Enzymol. 132 [1984] 267). The assay mixture (800 μl) consists of 0.75×10^6 cells/ml PBS-BSA containing 85 μM cytochrome c. Absorbance changes are recorded in a Hewlett-Packard 8451A diode array spectrophotometer equipped with a thermostated seven-place cuvette exchanger. Table 4 documents the capacity of NAF to elicit the respiratory burst in human neutrophils: […]

human neutrophils [2] = test: hydrogen peroxide formation by chemiluminescence in human neutrophils; assay type: cell-based
Method: b) H2O2-dependent chemiluminescence: the progress curves following stimulation with partially purified NAF and approximately equiactive concentrations of C5a and fMLP are shown on the left. The initial phase of the response is detailed on the right. The stimulants are added in 50 μl of PBS-BSA.
Lower graphs: respiratory burst induced by natural (left) and recombinant (right) NAF. Neutrophils (10^6 cells/ml) are stimulated with 3, 10 and 30 nM NAF at time zero and hydrogen peroxide production is measured by chemiluminescence (M. P. Wymann et al., Anal. Biochem. 165 [1987] 371-378).
The properties of NAF, fMLP and C5a as stimuli of the respiratory burst are compared by assessing the production of superoxide or hydrogen peroxide by the stimulated cells. Superoxide formation is determined as described in Example 13. Hydrogen peroxide formation is determined by chemiluminescence (M. P. Wymann et al., Anal. Biochem. 165 [1987] 371-378). The assay mixture consisting of PBS-BSA containing 0.1 M sodium azide, 0.01 mM luminol, 9 U/ml horseradish peroxidase and 10^6 neutrophils is preincubated for 10 min at 37° and the reaction is started by adding the stimulus via a microsyringe.

[3] = resistance of NAF activity to heat, pH, denaturing agents and proteases; assay type: physicochemical
Method: Partially purified NAF obtained upon phosphocellulose chromatography (Example 4) is used in these experiments. Following phosphocellulose chromatography, fractions with the highest NAF activity are dialysed overnight at 4° against PBS using a membrane with a molecular weight cut-off of 1000 daltons. The preparation obtained is then subjected to the following treatments: a) incubation at 37° with and without trypsin, chymotrypsin or proteinase K (100 μg/ml) followed by the addition of an excess of BSA (2 mg/ml) to stop NAF proteolysis; b) heating to 56°, 80° or 95° (as compared to 22° for control); c) exposure to pH 2 or 10 (at 22°) followed by adjustment to pH 7.4 (as compared to pH 7.4 for control); d) exposure to 2 M lithium chloride, 6 M guanidinium chloride, 1% 2-mercaptoethanol or 0.5% sodium dodecyl sulfate (SDS) for 3 h at 22°, followed by dialysis for 24 h at 4° against PBS. When additions are made, samples without NAF are handled in the same way and tested for possible influence on the NAF assay.

human neutrophils [4] = test: stimulus-dependent exocytosis of granule contents by human neutrophils; assay type: cell-based
Method: Neutrophils (5×10^6/ml) suspended in PBS/BSA are preincubated with or without cytochalasin B (5 μg/ml) at 37° for 5 min.
Granule release is then initiated by adding the stimulus, e.g. NAF or a standard stimulus. The reaction is stopped 15 min later by rapid cooling in ice followed by centrifugation to sediment the cells. Vitamin B12-binding protein, β-glucuronidase and lactate dehydrogenase are determined in the cell-free media and cell pellets, and the release of these constituents is calculated in percent of the total cellular content (B. Dewalt and M. Baggiolini, Methods Enzymol. 132 [1986] 267).
Natural and recombinant NAF are tested in parallel on human neutrophils. They elicit virtually identical changes in cytosolic free Ca^2+, yielding a maximum rise at a concentration as low as 3 nM (FIG. 15). A nearly identical concentration-dependent respiratory burst response is obtained with both preparations in the range of 1 to 30 nM as assessed by chemiluminescence. The equivalence between natural and recombinant NAF is also reflected by chemotaxis and exocytosis measurements. Chemotactic migration is observed between 0.1 and 10 nM with a maximum effect at 1 nM. (Table 6). With either peptide a significant release of vitamin B12-binding protein from the specific granules at 0.3 nM and of beta-glucuronidase from the azurophil granules at 1 nM is observed.

Rabbit neutrophils = test: NAF-induced exocytosis in rabbit neutrophils (N-acetyl-β-glucosaminidase release); assay type: cell-based; conditions: 15 min, cytochalasin B pretreated, purified natural NAF
Method: Rabbit neutrophils are isolated from peripheral blood (obtained from the ear vein or artery) by dextran sedimentation followed by Hypaque-Ficoll density gradient centrifugation. Purified natural NAF is used.
Exocytosis conditions: 0.6×10^6 cells (in a total volume of 0.15 ml) pretreated with cytochalasin B for 5 min at 37° are stimulated with NAF (0.1-100 nM) or fMLP (100 nM) for 15 min. N-acetyl-β-glucosaminidase, an azurophil granule marker, is determined in the cell-free medium.

[5] = NAF 50 μl, with CB (cytochalasin B 5 μg/ml)
[6] = NAF 100 μl, with CB (cytochalasin B 5 μg/ml)

Substance: neutrophil-activating factor [NAF]
- Cytochrome c reduction, Maximum rate (human neutrophils [1]; NAF 5 μl): 0.81 nmol/min
- Cytochrome c reduction, Total in 3 min (human neutrophils [1]; NAF 5 μl): 0.89 nmol
- Cytochrome c reduction, Maximum rate (human neutrophils [1]; NAF 10 μl): 1.45 ± 0.63 nmol/min
- Cytochrome c reduction, Total in 3 min (human neutrophils [1]; NAF 10 μl): 1.45 ± 0.50 nmol
- Cytochrome c reduction, Maximum rate (human neutrophils [1]; NAF 20 μl): 2.32 ± 0.56 nmol/min
- Cytochrome c reduction, Total in 3 min (human neutrophils [1]; NAF 20 μl): 2.16 ± 0.39 nmol
- Cytochrome c reduction, Maximum rate (human neutrophils [1]; NAF 30 μl): 2.51 ± 0.50 nmol/min
- Cytochrome c reduction, Total in 3 min (human neutrophils [1]; NAF 30 μl): 2.30 ± 0.55 nmol
- Cytochrome c reduction, Maximum rate (human neutrophils [1]; NAF 50 μl): 3.51 ± 0.69 nmol/min
- Cytochrome c reduction, Total in 3 min (human neutrophils [1]; NAF 50 μl): 3.10 ± 0.55 nmol
- Cytochrome c reduction, Maximum rate (human neutrophils [1]; NAF 100 μl): 3.69 nmol/min
- Cytochrome c reduction, Total in 3 min (human neutrophils [1]; NAF 100 μl): 3.39 nmol
- time between stimulus addition and onset of H2O2 production (human neutrophils [2]): about 2 sec
- Relative activity ([3]; 2-mercaptoethanol 1.0%, 22°, 3 h): 30
- Relative activity ([3]; SDS 0.5%, 22°, 3 h): 100
- Relative activity ([3]; Temperature 22°, 3 h (control)): 100
- Relative activity ([3]; Temperature 56°, 1 h): 82
- Relative activity ([3]; Temperature 80°, 15 min): 80
- Relative activity ([3]; Temperature 95°, 5 min): 66
- Relative activity ([3]; guanidinium chloride 6M, 22°, 3 h): 68
- Relative activity ([3]; lithium chloride 2M, 22°, 3 h): 52
- Relative activity ([3]; pH 2.0, 22°, 3 h): 76
- Relative activity ([3]; pH 10.0, 22°, 3 h): 90
- Relative activity ([3]; proteinase K 100 μg/ml, 37°, 12 h): 0
- Relative activity ([3]; trypsin 100 μg/ml, 37°, 4 h): 100
- Relative activity ([3]; trypsin 100 μg/ml, 37°, 12 h): 8
- Relative activity ([3]; α-chymotrypsin 100 μg/ml, 37°, 4 h): 80
- Relative activity ([3]; α-chymotrypsin 100 μg/ml, 37°, 12 h): 1
- Percent release of Vit. B12-binding protein (human neutrophils [4]; [5]): 25.6 ± 3.4%
- Percent release of lactate dehydrogenase (human neutrophils [4]; [5]): 6.7 ± 1.6%
- Percent release of β-glucuronidase (human neutrophils [4]; [5]): 7.9 ± 2.0%
- Percent release of Vit. B12-binding protein (human neutrophils [4]; NAF 50 μl, without CB): 12.9 ± 1.6%
- Percent release of lactate dehydrogenase (human neutrophils [4]; NAF 50 μl, without CB): 5.8 ± 0.7%
- Percent release of β-glucuronidase (human neutrophils [4]; NAF 50 μl, without CB): 2.7 ± 1.3%
- Percent release of Vit. B12-binding protein (human neutrophils [4]; [6]): 26.8 ± 4.9%
- Percent release of lactate dehydrogenase (human neutrophils [4]; [6]): 7.3 ± 2.1%
- Percent release of β-glucuronidase (human neutrophils [4]; [6]): 8.5 ± 1.7%
- Percent release of Vit. B12-binding protein (human neutrophils [4]; NAF 100 μl, without CB): 13.9 ± 2.1%
- Percent release of lactate dehydrogenase (human neutrophils [4]; NAF 100 μl, without CB): 6.8 ± 2.2%
- Percent release of β-glucuronidase (human neutrophils [4]; NAF 100 μl, without CB): 3.0 ± 1.3%
- N-acetyl-β-glucosaminidase (Rabbit neutrophils; stimulus 0.1 nM): 53 pmol/min
- N-acetyl-β-glucosaminidase (Rabbit neutrophils; stimulus 1.0 nM): 99 pmol/min
- N-acetyl-β-glucosaminidase (Rabbit neutrophils; stimulus 10.0 nM): 139 pmol/min
- N-acetyl-β-glucosaminidase (Rabbit neutrophils; stimulus 100.0 nM): 157 pmol/min
